In publication PMC11846858, “Macrocarpal I induces immunogenic cell death and synergizes with immune checkpoint inhibition by targeting tubulin and PARP1 in colorectal cancer” (Cell Death Discovery, 2025):

Molecular target: T1, Tubulin Beta 2B Class IIb (TUBB2B) (Homo sapiens, UniProt Q9BVA1)
T1 construct: human TUBB2B in pET28a, N-terminal His-tag, expressed in E. coli BL21 (DE3) RIL
Assay: ITC with purified His-tagged TUBB2B; supported by DARTS in SW620 and DLD1 lysates
Format: binding

T1 sequence (Q9BVA1 whole entry): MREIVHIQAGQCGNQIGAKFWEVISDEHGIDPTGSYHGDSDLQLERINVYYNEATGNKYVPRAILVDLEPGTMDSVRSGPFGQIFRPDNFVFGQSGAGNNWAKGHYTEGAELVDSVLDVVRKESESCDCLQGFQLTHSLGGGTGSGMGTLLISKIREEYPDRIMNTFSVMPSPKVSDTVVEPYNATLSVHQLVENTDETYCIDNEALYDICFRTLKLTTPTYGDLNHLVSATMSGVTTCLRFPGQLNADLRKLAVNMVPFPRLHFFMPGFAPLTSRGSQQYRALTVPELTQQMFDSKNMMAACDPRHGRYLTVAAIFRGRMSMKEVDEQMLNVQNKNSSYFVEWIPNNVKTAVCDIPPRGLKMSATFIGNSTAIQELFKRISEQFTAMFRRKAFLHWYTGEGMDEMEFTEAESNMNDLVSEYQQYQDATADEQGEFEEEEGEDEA

Kd: 1540 nM
SMILES: CC(C)C[C@H](c1c(O)c(C=O)c(O)c(C=O)c1O)[C@@H]1CC[C@@](C)(O)[C@@H]2C[C@H](C(C)(C)O)CC[C@]21C [Macrocarpal I]
